Experimental findings from US7435837B2, “Dihydrobenzofuranyl alkanamine derivatives and methods for using same” (Wyeth, priority 2003, dated 2008) are described below.

Counter-ions that a name gives are not always drawn.

As for `COc1ccc2c(c1)OC(CN)C2` (racemic) (as salt: hydrochloride) [Example 30, (±)-1-(6-methoxy-2,3-dihydro-1-benzofuran-2-yl)methanamine], the melting point (usually the temperature of the solid-liquid transition) was > 220 °C. Take `CC(C)c1cccc2c1OC(CN)C2` (racemic) (as salt: hydrochloride) [Example 18, (±)-(7-isopropyl-2,3-dihydro-1-benzofuran-2-yl)methylamine]: the melting point was 160 to 164 °C (dec.). `NCC1Cc2cccc(-c3ccc4ccccc4c3)c2O1` (racemic) (as salt: hydrochloride) [Example 39, (±)-1-[7-(2-naphthyl)-2,3-dihydro-1-benzofuran-2-yl]methanamine] returned a melting point of 135 to 140 °C. In turn, `NCC1Cc2cc(F)cc(-c3ccccc3C(F)(F)F)c2O1` (single isomer, unassigned; (-)) (as salt: hydrochloride) [Example 151, (−)-1-{5-fluoro-7-[2-(trifluoromethyl)phenyl]-2,3-dihydro-1-benzofuran-2-yl}methanamine] had a melting point of 183 to 188 °C. As for `NCC1Cc2cc(Cl)cc(-c3ccccc3)c2O1` (single isomer, unassigned; (+)) (as salt: hydrobromid) [Example 85, (+)-1-(5-chloro-7-phenyl-2,3-dihydro-1-benzofuran-2-yl)methanamine], the melting point was in the range of 201 to 203 °C. `CC(C)(C)/C=C/c1cccc2c1OC(CN)C2` (racemic) (as salt: hydrochloride) [Example 117, (±)-1-{7-[(1E)-3,3-dimethylbut-1-enyl]-2,3-dihydro-1-benzofuran-2-yl}methanamine] gave a melting point of 216 to 218 °C. As for `Cc1ccccc1-c1cc(Cl)cc2c1OC(CN)C2` (racemic) (as salt: salt) [Example 95, (±)-1-[5-chloro-7-(2-methylphenyl)-2,3-dihydro-1-benzofuran-2-yl]methanamine], the melting point was 160 to 163 °C. On to `COc1ccccc1-c1cccc2c1OC(CN)C2` (racemic) (as salt: hydrochloride) [Example 59, (±)-1-[7-(2-methoxyphenyl)-2,3-dihydro-1-benzofuran-2-yl]methanamine], for which the melting point is > 250 °C. Regarding `CNCC1Cc2cc(Cl)cc(-c3ccsc3)c2O1` (single isomer, unassigned; (+)) (as salt: hydrochloride) [Example 93, (+)-N-[(5-chloro-7-thien-3-yl-2,3-dihydro-1-benzofuran-2-yl)methyl]-N-methylamine], the melting point lay within 263 to 266 °C. As for `Cc1ccccc1-c1cccc2c1CC(CN)O2` (single isomer, unassigned; (-)) (as salt: hydrobromid) [Example 6, (−)-1-[4-(2-methylphenyl)-2,3-dihydro-1-benzofuran-2-yl]methanamine], the melting point lay in the range of 231 to 233 °C. Molecule `NCC1Cc2cccc(-c3ccccc3F)c2O1` (single isomer, unassigned; (-)) (as salt: hydrochloride) [Example 52, (−)-1-[7-(2-fluorophenyl)-2,3-dihydro-1-benzofuran-2-yl]methanamine] had a melting point of 224 to 225 °C. `NCC1Cc2cccc(-c3ccc(F)cc3)c2O1` (racemic) (as salt: hydrochloride) [Example 73, (±)-1-[7-(4-fluorophenyl)-2,3-dihydro-1-benzofuran-2-yl]methanamine] registered a melting point of 237 to 240 °C. Regarding `COc1cc2c(c(C(C)(C)C)c1)OC(CN)C2` (racemic) (as salt: hydrochloride) [Example 13, (±)-(7-tert-butyl-5-methoxy-2,3-dihydro-1-benzofuran-2-yl)methylamine], the melting point was in the range of 174 to 176 °C.

Regarding `NCC1Cc2cccc(-c3c(Cl)cccc3Cl)c2O1` (single isomer, unassigned; (-)) (as salt: hydrochloride) [Example 141, (−)-1-[7-(2,6-dichlorophenyl)-2,3-dihydro-1-benzofuran-2-yl]methanamine], the melting point was in the range of 207 to 209 °C. Consider `NCC1Cc2cccc(-c3ccccc3)c2O1` (racemic) (as salt: hydrochloride) [Example 36, (±)-1-(7-phenyl-2,3-dihydro-1-benzofuran-2-yl)methanamine], for which the melting point is > 200 °C (dec.). The molecule `NCC1Cc2cccc(-c3cc(Cl)cc(Cl)c3)c2O1` (racemic) (as salt: hydrochloride) [Example 35, (±)-1-[7-(3,5-dichlorophenyl)-2,3-dihydro-1-benzofuran-2-yl]methanamine] gave a melting point of 165 to 168 °C. With `NCC1Cc2cccc(-c3ccc(C(F)(F)F)cc3)c2O1` (single isomer, unassigned; (+)) (as salt: hydrochloride) [Example 137, (+)-1-{7-[4-(trifluoromethyl)phenyl]-2,3-dihydro-1-benzofuran-2-yl}methanamine] the figure was 226 to 229 °C. In the case of `Cc1cccc(C)c1-c1cccc2c1CC(CN)O2` (single isomer, unassigned; (+)) (as salt: hydrochloride) [Example 126, (+)-1-[4-(2,6-dimethylphenyl)-2,3-dihydro-1-benzofuran-2-yl]methanamine], the melting point was > 250 °C. For `CC1(CN)Cc2cc(Cl)cc(-c3cccs3)c2O1` (racemic) (as salt: hydrochloride) [Example 114, (±)-(5-chloro-2-methyl-7-thien-2-yl-2,3-dihydro-1-benzofuran-2-yl)methylamine], the melting point lay in the range of 251 to 252 °C. With `COc1ccc(-c2cccc3c2OC(CN)C3)c(OC)c1` (racemic) (as salt: hydrochloride) [Example 143, (±)-1-[7-(2,4-dimethoxyphenyl)-2,3-dihydro-1-benzofuran-2-yl]methanamine] the figure was 175 to 178 °C; with `NCC1Cc2cc(Cl)cc(-c3cccc(Cl)c3)c2O1` (racemic) (as salt: hydrochloride) [Example 89, (±)-1-[5-chloro-7-(3-chlorophenyl)-2,3-dihydro-1-benzofuran-2-yl]methanamine], 195 °C (dec.); with `NCC1Cc2cccc(-c3ccc(Cl)cc3Cl)c2O1` (single isomer, unassigned; (+)) (as salt: hydrochloride) [Example 150, (+)-1-[7-(2,4-dichlorophenyl)-2,3-dihydro-1-benzofuran-2-yl]methanamine], 201 to 204 °C. Consider `NCC1Cc2cc(F)cc(-c3ccccc3Cl)c2O1` (racemic) (as salt: hydrochloride) [Example 100, (±)-1-[7-(2-chlorophenyl)-5-fluoro-2,3-dihydro-1-benzofuran-2-yl]methanamine], for which the melting point is > 250 °C (dec.). As to `NCC1Cc2cccc(C3CCCC3)c2O1` (single isomer, unassigned; (-)) (as salt: hydrobromid) [Example 9, (−)-(7-cyclopentyl-2,3-dihydro-1-benzofuran-2-yl)methylamine], the melting point lay in the range of 208 to 211 °C. `NCC1Cc2cccc(-c3c(Cl)cccc3Cl)c2O1` (racemic) (as salt: hydrochloride) [Example 140, (±)-1-[7-(2,6-dichlorophenyl)-2,3-dihydro-1-benzofuran-2-yl]methanamine] registered a melting point of 206 to 208 °C.

As to `Cc1ccccc1-c1cccc2c1OC(CN)C2` (single isomer, unassigned; (-)) (as salt: hydrochloride) [Example 49, (−)-1-[7-(2-methylphenyl)-2,3-dihydro-1-benzofuran-2-yl]methanamine], the melting point lay within 208 to 209 °C. The molecule `CC(C)c1ccccc1-c1cccc2c1OC(CN)C2` (racemic) (as salt: hydrochloride) [Example 61, (±)-[7-(2-isopropylphenyl)-2,3-dihydro-1-benzofuran-2-yl]methylamine] registered a melting point of 202 to 204 °C. `Cc1c(Cl)cc(C(C)C)c2c1CC(CN)O2` (racemic) (as salt: hydrochloride) [Example 21, (±)-1-(5-chloro-7-isopropyl-4-methyl-2,3-dihydro-1-benzofuran-2-yl)methanamine]: the melting point is > 225 °C (dec.).

The molecule `NCC1Cc2cccc(-c3ccsc3)c2O1` (single isomer, unassigned; (+)) (as salt: hydrobromid) [Example 45, (+)-1-(7-thien-3-yl-2,3-dihydro-1-benzofuran-2-yl)methanamine] came in with a melting point of 234 to 236 °C. To `NCC1Cc2cccc(-c3ccc(Cl)cc3)c2O1` (single isomer, unassigned; (+)) (as salt: hydrobromid) [Example 77, (+)-1-[7-(4-chlorophenyl)-2,3-dihydro-1-benzofuran-2-yl]methanamine] belongs 229 to 231 °C; to `NCC1Cc2cc(Cl)cc(-c3ccsc3)c2O1` (single isomer, unassigned; (-)) (as salt: hydrobromid) [Example 91, (−)-(5-chloro-7-thien-3-yl-2,3-dihydro-1-benzofuran-2-yl)methylamine], 277 to 280 °C; to `COc1ccc(-c2cccc3c2OC(CN)C3)cc1` (single isomer, unassigned; (-)) (as salt: hydrobromid) [Example 81, (−)-1-[7-(4-methoxyphenyl)-2,3-dihydro-1-benzofuran-2-yl]methanamine], 185 to 188 °C. Consider `NCC1Cc2c(cccc2-c2ccccc2C(F)(F)F)O1` (single isomer, unassigned; (-)) (as salt: hydrochloride) [Example 123, (−)-1-{4-[2-(trifluoromethyl)phenyl]-2,3-dihydro-1-benzofuran-2-yl}methanamine], for which the melting point fell in the range of 203 to 206 °C.

Regarding `Cc1cccc(-c2cccc3c2OC(CN)C3)c1C` (racemic) (as salt: hydrochloride) [Example 154, (±)-1-[7-(2,3-dimethylphenyl)-2,3-dihydro-1-benzofuran-2-yl]methanamine], the melting point is > 225 °C.

Turning to `COc1cc(Cl)cc2c1OC(CN)C2` (racemic) (as salt: hydrochloride) [Example 111, (±)-1-(5-chloro-7-methoxy-2,3-dihydro-1-benzofuran-2-yl)methanamine], the melting point fell in the range of 195 to 198 °C.
